In patent US11440923B2, “Substituted macrocyclic indole derivatives” (Bayer Aktiengesellschaft, priority 2017, dated 2022):
Where a name gives a salt, the structure may show the parent alone. Read-outs that look alike come from different tables or passages of the source.

Experiments:
Type in all cases: cell-based
SUDHL5 cells [1] = assay: Induction of caspase-3/7 activity in SUDHL5 cells (Assay 4)
In short: (§1)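 Caspase-3/7 activity measured in DLBCL lines after 3 h compound exposure at 37 °C, following overnight plating; Caspase-Glo 3/7 luminescence read after 1 h at 37 °C. Medium-only background subtracted, values normalized to mean of DMSO-treated cells.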

SUDHL10 cells [2] = assay: Induction of caspase-3/7 activity in SUDHL10 cells (Assay 4)
In short: as §1

SUDHL10 cells [3] = assay: Induction of cytotoxicity in SUDHL10 cells (Assay 6); settings: 5 h, CellTiter-Glo, read-out: Cytotox SUDHL10 IC50 (median)
In short: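 Overnight seeding, 37 °C; 5 h compound exposure; CellTiter-Glo, 15 min RT shake; luminescence read. No-cell medium control.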

SUDHL5 cells [4] = assay: Antiproliferation assay SUDHL5 (Assay 7)
In short: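 Growth inhibition is determined from ATP luminescence (CellTiter-Glo) following 72 h incubation with compound. Time-zero cells are measured the same way for baseline, and IC50s are referenced to DMSO controls.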

[5] = Homo sapiens, SU-DHL-5, 3 h, caspase-3/7 induction, 3 h; read-out: Caspase SUDHL5 EC50 (median)
[6] = Homo sapiens, SU-DHL10, 3 h, caspase-3/7 induction, 3 h; read-out: Caspase SUDHL10 EC50 (median)
[7] = Homo sapiens, SU-DHL-5, 72 h, 72 h, CellTiter-Glo, read-out: Antiproli SUDHL5 IC50 (median)
[8] = read-out: Caspase SUDHL5 EC50 (median); caspase-3/7 induction, 3 h
[9] = read-out: Caspase SUDHL10 EC50 (median); caspase-3/7 induction, 3 h
[10] = read-out: Antiproli SUDHL5 IC50 (median), 72 h, CellTiter-Glo
[11] = caspase-3/7 induction, 3 h; read-out: Caspase SUDHL5 EC50 (median)
[12] = caspase-3/7 induction, 3 h; read-out: Caspase SUDHL10 EC50 (median)
[13] = 72 h, CellTiter-Glo, read-out: Antiproli SUDHL5 IC50 (median)
[14] = Homo sapiens, SU-DHL-5, 72 h, read-out: Antiproli SUDHL5 IC50 (median), 72 h, CellTiter-Glo

Compound	EC50 (SUDHL5 cells [1]; [5]) [nM]	EC50 (SUDHL10 cells [2]; [6]) [nM]	IC50 (SUDHL5 cells [4]; [7]) [nM]	EC50 (SUDHL5 cells [1]; [8]) [nM]	EC50 (SUDHL10 cells [2]; [9]) [nM]	IC50 (SUDHL10 cells [3]) [nM]	IC50 (SUDHL10 cells [3]; Homo sapiens, SU-DHL10, 5 h) [nM]	further results
CCc1c2c(nn1C)C(CCC1CCOCC1)OCCCCn1c(C(=O)O)c(CCCOc3cccc4cc(F)ccc34)c3ccc(Cl)c-2c31 (racemic) [Example 60, (rac)-4-chloro-3-ethyl-7-{3-[(6-fluoronaphthalen-1-yl)oxy]propyl}-2-methyl-(15-rac)-[2-(oxan-4-yl)ethyl]-2,10,11,12,13,15-hexahydropyrazolo[4′,3′:9,10][1,6]oxazacycloundecino[8,7,6-hi]indole-8-carboxylic Acid]	50	77	65			87		
Cc1c2c(nn1C)C(CCO)OCCCCn1c(C(=O)O)c(CCCOc3cccc4ccccc34)c3ccc(Cl)c-2c31 (single isomer, unassigned; enantiomer 2) [Example 32, (−)-4-chloro-15-(2-hydroxyethyl)-2,3-dimethyl-7-{3-[(naphthalen-1-yl)oxy]propyl}-2,10,11,12,13,15-hexahydropyrazolo[4′,3′:9,10][1,6]oxazacycloundecino[8,7,6-hi]indole-8-carboxylic Acid (Enantiomer 2)]						> 33000		EC50 (SUDHL5 cells [1]; [11]): > 33000 nM; EC50 (SUDHL10 cells [2]; [12]): > 33000 nM; IC50 (SUDHL5 cells [4]; [13]): 26000 nM
Cc1c2c(nn1C)C(CCN1CCOCC1)OCCCCn1c(C(=O)O)c(CCCOc3cccc4ccccc34)c3ccc(F)c-2c31 (racemic) [Example 7, (rac)-4-fluoro-2,3-dimethyl-15-[2-(morpholin-4-yl)ethyl]-7-[3-(naphthalen-1-yloxy)propyl]-2,10,11,12,13,15-hexahydropyrazolo[4′,3′:9,10][1,6]oxazacycloundecino[8,7,6-hi]indole-8-carboxylic Acid]	200	360	200				380	
Cc1c2c(nn1C)C(CCO)OCCCCn1c(C(=O)O)c(CCCOc3cccc4ccccc34)c3ccc(Cl)c-2c31 (single isomer, unassigned; enantiomer 1) [Example 31, (+)-4-chloro-15-(2-hydroxyethyl)-2,3-dimethyl-7-{3-[(naphthalen-1-yl)oxy]propyl}-2,10,11,12,13,15-hexahydropyrazolo[4′,3′:9,10][1,6]oxazacycloundecino[8,7,6-hi]indole-8-carboxylic Acid (Enantiomer 1)]						350		EC50 (SUDHL5 cells [1]; [11]): 280 nM; EC50 (SUDHL10 cells [2]; [12]): 240 nM; IC50 (SUDHL5 cells [4]; [13]): 240 nM
Cc1c2c(nn1C)C(CCN1CCOCC1)OCCCCn1c(C(=O)O)c(CCCOc3cccc4cc(F)ccc34)c3ccc(F)c-2c31 (single isomer, unassigned; enantiomer 2) [Example 21, 4-fluoro-7-{3-[(6-fluoronaphthalen-1-yl)oxy]propyl}-2,3-dimethyl-15-[2-(morpholin-4-yl)ethyl]-2,10,11,12,13,15-hexahydropyrazolo[4′,3′:9,10][1,6]oxazacycloundecino[8,7,6-hi]indole-8-carboxylic Acid (Enantiomer 2)]	11000	13000	3400				14000	
CCc1c2c(nn1C)C(CCN1CCC(F)(F)C1)OCCCCn1c(C(=O)O)c(CCCOc3cccc4cc(F)ccc34)c3ccc(Cl)c-2c31 (single isomer, unassigned; enantiomer 2) [Example 57, 4-chloro-15-[2-(3,3-difluoropyrrolidin-1-yl)ethyl]-3-ethyl-7-{3-[(6-fluoronaphthalen-1-yl)oxy]propyl}-2-methyl-2,10,11,12,13,15-hexahydropyrazolo[4′,3′:9,10][1,6]oxazacycloundecino[8,7,6-hi]indole-8-carboxylic Acid N-ethylethanamine Salt (Enantiomer 2)]				7400	7700	10000		IC50 (SUDHL5 cells [4]; [10]): 8700 nM
CCc1c2c(nn1C)C(CCOC)OCCCCn1c(C(=O)O)c(CCCOc3cccc4cc(F)ccc34)c3ccc(Cl)c-2c31 (single isomer, unassigned; enantiomer 1) [Example 42, (+)-4-chloro-3-ethyl-7-{3-[(6-fluoronaphthalen-1-yl)oxy]propyl}-15-(2-methoxyethyl)-2-methyl-2,10,11,12,13,15-hexahydropyrazolo[4′,3′:9,10][1,6]oxazacycloundecino[8,7,6-hi]indole-8-carboxylic Acid—N-ethylethanamine Salt (Enantiomer 1)]				14	52	66		IC50 (SUDHL5 cells [4]; [14]): 52 nM
Cc1c2c(nn1C)C(CCN1CCOCC1)OCCCCn1c(C(=O)O)c(CCCOc3cccc4cc(F)ccc34)c3ccc(Cl)c-2c31 (racemic) [Example 16, (rac)-4-chloro-7-{3-[(6-fluoronaphthalen-1-yl)oxy]propyl}-2,3-dimethyl-15-[2-(morpholin-4-yl)ethyl]-2,10,11,12,13,15-hexahydropyrazolo[4′,3′:9,10][1,6]oxazacycloundecino[8,7,6-hi]indole-8-carboxylic Acid]	6.8	19	19				22	

Second part, led by results:

EC50 (SUDHL5 cells [1]; [5]) [nM]	EC50 (SUDHL10 cells [2]; [6]) [nM]	IC50 (SUDHL5 cells [4]; [7]) [nM]	EC50 (SUDHL5 cells [1]; [8]) [nM]	EC50 (SUDHL10 cells [2]; [9]) [nM]	Compound	IC50 (SUDHL10 cells [3]) [nM]	IC50 (SUDHL10 cells [3]; Homo sapiens, SU-DHL10, 5 h) [nM]	further results
			6400	12000	Cc1c2c(nn1C)C(CCN1CCOCC1)OCCCCn1c(C(=O)O)c(CCCOc3cccc4ccccc34)c3ccc(F)c-2c31 (single isomer, unassigned; enantiomer 2) [Example 9, 4-fluoro-2,3-dimethyl-15-[2-(morpholin-4-yl)ethyl]-7-{3-[(naphthalen-1-yl)oxy]propyl}-2,10,11,12,13,15-hexahydropyrazolo[4′,3′:9,10][1,6]oxazacycloundecino[8,7,6-hi]indole-8-carboxylic Acid—N-ethylethanamine Salt (Enantiomer 2)]	16000		IC50 (SUDHL5 cells [4]; [10]): 4300 nM
33	21	42			CCc1c2c(nn1C)C(CCN1CCOCC1)OCCCCn1c(C(=O)O)c(CCCOc3cccc4cc(F)ccc34)c3ccc(F)c-2c31 (racemic) [Example 49, (rac)-3-Ethyl-4-fluoro-7-{3-[(6-fluoronaphthalen-1-yl)oxy]propyl}-2-methyl-(15-rac)-[2-(morpholin-4-yl)ethyl]-2,10,11,12,13,15-hexahydropyrazolo[4′,3′:9,10][1,6]oxazacycloundecino[8,7,6-hi]indole-8-carboxylic Acid]		33	
			750	1500	CCc1c2c(nn1C)C(C1CC1)OCCCCn1c(C(=O)O)c(CCCOc3cccc4cc(F)ccc34)c3ccc(Cl)c-2c31 (single isomer, unassigned; enantiomer 1) [Example 39, (+)-4-chloro-15-cyclopropyl-3-ethyl-7-{3-[(6-fluoronaphthalen-1-yl)oxy]propyl}-2-methyl-2,10,11,12,13,15-hexahydropyrazolo[4′,3′:9,10][1,6]oxazacycloundecino[8,7,6-hi]indole-8-carboxylic Acid—N-ethylethanamine Salt (Enantiomer 1)]	1400		IC50 (SUDHL5 cells [4]; [14]): 880 nM
250	210	510			COCCC1OCCCCn2c(C(=O)O)c(CCCOc3cccc4ccccc34)c3ccc(Cl)c(c32)-c2c1nn(C)c2C (racemic) [Example 37, (rac)-4-chloro-(15-rac)-(2-methoxyethyl)-2,3-dimethyl-7-{3-[(naphthalen-1-yl)oxy]propyl}-2,10,11,12,13,15-hexahydropyrazolo[4′,3′:9,10][1,6]oxazacycloundecino[8,7,6-hi]indole-8-carboxylic Acid]		360	
77	140	110			Cc1c2c(nn1C)C(CCN1CCOCC1)OCCCCn1c(C(=O)O)c(CCCOc3cccc4ccccc34)c3ccc(Cl)c-2c31 (racemic) [Example 13, (rac)-4-chloro-2,3-dimethyl-15-[2-(morpholin-4-yl)ethyl]-7-{3-[(naphthalen-1-yl)oxy]propyl}-2,10,11,12,13,15-hexahydropyrazolo[4′,3′:9,10][1,6]oxazacycloundecino[8,7,6-hi]indole-8-carboxylic Acid]		210	
			76	160	CCc1c2c(nn1C)C(CC(C)(C)O)OCCCCn1c(C(=O)O)c(CCCOc3cccc4cc(F)ccc34)c3ccc(Cl)c-2c31 (single isomer, unassigned; enantiomer 1) [Example 53, (+)-4-chloro-3-ethyl-7-{3-[(6-fluoronaphthalen-1-yl)oxy]propyl}-15-(2-hydroxy-2-methylpropyl)-2-methyl-2,10,11,12,13,15-hexahydropyrazolo[4′,3′:9,10][1,6]oxazacycloundecino[8,7,6-hi]indole-8-carboxylic Acid—N-ethylethanamine Salt (Enantiomer 1)]	190		IC50 (SUDHL5 cells [4]; [10]): 99 nM
